Test results: ChEMBL document CHEMBL1124634, “Synthesis and antirhinovirus activity of 6-(dimethylamino)-2-(trifluoromethyl)-9-(substituted benzyl)-9H-purines” (J Med Chem, 1989)

System: Human rhinovirus sp.
Assay: Antiviral activity against rhinoviral 15 serotype in a plaque inhibition assay using monolayers of M-HeLa cells
Format: functional, organism-based

Compound | IC50 [µM]
CN(C)c1nc(C(F)(F)F)nc2c1ncn2Cc1ccc(Cl)c(N)c1 | 5.8
CN(C)c1nc(C(F)(F)F)nc2c1ncn2Cc1ccc(Cl)c(Cl)c1 | 3.7

System: Human rhinovirus sp.
Assay: Antiviral activity against rhinoviral 8 serotype in a plaque inhibition assay using monolayers of M-HeLa cells
Format: functional, organism-based

Compound | IC50 [µM]
CN(C)c1nc(C(F)(F)F)nc2c1ncn2Cc1ccc(Cl)c(N)c1 | 6.2
CN(C)c1nc(C(F)(F)F)nc2c1ncn2Cc1ccc(Cl)c(Cl)c1 | 11

System: Human rhinovirus sp.
Assay: Antiviral activity against rhinoviral 2 serotype in a plaque inhibition assay using monolayers of M-HeLa cells
Format: functional, organism-based

Compound | IC50 [µM]
CN(C)c1nc(C(F)(F)F)nc2c1ncn2Cc1ccc(Cl)c(N)c1 | 6.5
CN(C)c1nc(C(F)(F)F)nc2c1ncn2Cc1ccc(Cl)c(Cl)c1 | 6.1

System: Human rhinovirus sp.
Assay: Antiviral activity against rhinoviral-1B serotype in a plaque inhibition assay using monolayers of M-HeLa cells
Format: functional, organism-based

Compound | IC50 [µM]
CN(C)c1nc(C(F)(F)F)nc2c1ncn2Cc1ccc(Cl)c(N)c1 | 0.17
CN(C)c1nc(C(F)(F)F)nc2c1ncn2Cc1ccc(Cl)c(Cl)c1 | 0.12

System: Human rhinovirus sp.
Assay: Percent inhibitory activity at 8 uM against rhinoviral 13 serotype in a plaque inhibition assay using monolayers of M-HeLa cells
Format: functional

Compound | Inhibition [%]
CN(C)c1nc(C(F)(F)F)nc2c1ncn2Cc1ccc(Cl)c(N)c1 | 18
CN(C)c1nc(C(F)(F)F)nc2c1ncn2Cc1ccc(Cl)c(Cl)c1 | 23

System: Human rhinovirus sp.
Assay: Antiviral activity against rhinoviral 31 serotype in a plaque inhibition assay using monolayers of M-HeLa cells
Format: functional, organism-based

Compound | IC50 [µM]
CN(C)c1nc(C(F)(F)F)nc2c1ncn2Cc1ccc(Cl)c(Cl)c1 | 13

System: Human rhinovirus sp.
Assay: Percent inhibitory activity at 8 uM against rhinoviral 29 serotype in a plaque inhibition assay using monolayers of M-HeLa cells
Format: functional

Compound | Inhibition [%]
CN(C)c1nc(C(F)(F)F)nc2c1ncn2Cc1ccc(Cl)c(N)c1 | 26

System: Human rhinovirus sp.
Assay: Antiviral activity against rhinoviral 16 serotype in a plaque inhibition assay using monolayers of M-HeLa cells
Format: functional, organism-based

Compound | IC50 [µM]
CN(C)c1nc(C(F)(F)F)nc2c1ncn2Cc1ccc(Cl)c(N)c1 | 1.6
CN(C)c1nc(C(F)(F)F)nc2c1ncn2Cc1ccc(Cl)c(Cl)c1 | 0.74

System: Human rhinovirus sp.
Assay: Antiviral activity against rhinoviral 30 serotype in a plaque inhibition assay using monolayers of M-HeLa cells
Format: functional, organism-based

Compound | IC50 [µM]
CN(C)c1nc(C(F)(F)F)nc2c1ncn2Cc1ccc(Cl)c(Cl)c1 | 7.5

System: Human rhinovirus sp.
Assay: Antiviral activity against rhinoviral 9 serotype in a plaque inhibition assay using monolayers of M-HeLa cells
Format: functional, organism-based

Compound | IC50 [µM]
CN(C)c1nc(C(F)(F)F)nc2c1ncn2Cc1ccc(Cl)c(N)c1 | 1.5
CN(C)c1nc(C(F)(F)F)nc2c1ncn2Cc1ccc(Cl)c(Cl)c1 | 0.71

System: Human rhinovirus sp.
Assay: Percent inhibitory activity at 8 uM against rhinoviral 19s erotype in a plaque inhibition assay using monolayers of M-HeLa cells
Format: functional

Compound | Inhibition [%]
CN(C)c1nc(C(F)(F)F)nc2c1ncn2Cc1ccc(Cl)c(N)c1 | 40

System: Human rhinovirus sp.
Assay: Percent inhibitory activity at 8 uM against rhinoviral 21 serotype in a plaque inhibition assay using monolayers of M-HeLa cells
Format: functional

Compound | Inhibition [%]
CN(C)c1nc(C(F)(F)F)nc2c1ncn2Cc1ccc(Cl)c(N)c1 | 10
CN(C)c1nc(C(F)(F)F)nc2c1ncn2Cc1ccc(Cl)c(Cl)c1 | 29

System: Human rhinovirus sp.
Assay: Antiviral activity against rhinoviral 12 serotype in a plaque inhibition assay using monolayers of M-HeLa cells
Format: functional, organism-based

Compound | IC50 [µM]
CN(C)c1nc(C(F)(F)F)nc2c1ncn2Cc1ccc(Cl)c(N)c1 | 5.2
CN(C)c1nc(C(F)(F)F)nc2c1ncn2Cc1ccc(Cl)c(Cl)c1 | 5.1

System: Human rhinovirus sp.
Assay: Antiviral activity against rhinoviral 14 serotype in a plaque inhibition assay using monolayers of M-HeLa cells
Format: functional, organism-based

Compound | IC50 [µM]
CN(C)c1nc(C(F)(F)F)nc2c1ncn2Cc1ccc(Cl)c(N)c1 | 7.1
CN(C)c1nc(C(F)(F)F)nc2c1ncn2Cc1ccc(Cl)c(Cl)c1 | 10

System: Human rhinovirus sp.
Assay: Antiviral activity against rhinoviral 3 serotype in a plaque inhibition assay using monolayers of M-HeLa cells
Format: functional, organism-based

Compound | IC50 [µM]
CN(C)c1nc(C(F)(F)F)nc2c1ncn2Cc1ccc(Cl)c(N)c1 | 14

System: Human rhinovirus sp.
Assay: Antiviral activity against rhinoviral-18 serotype in a plaque inhibition assay using monolayers of M-HeLa cells
Format: functional, organism-based

Compound | IC50 [µM]
CN(C)c1nc(C(F)(F)F)nc2c1ncn2Cc1ccc(Cl)c(N)c1 | 14
CN(C)c1nc(C(F)(F)F)nc2c1ncn2Cc1ccc(Cl)c(Cl)c1 | 8.1

System: Human rhinovirus sp.
Assay: Percent inhibitory activity at 8 uM against rhinoviral 30 serotype in a plaque inhibition assay using monolayers of M-HeLa cells
Format: functional

Compound | Inhibition [%]
CN(C)c1nc(C(F)(F)F)nc2c1ncn2Cc1ccc(Cl)c(N)c1 | 34

System: Human rhinovirus sp.
Assay: Antiviral activity against rhinoviral 29 serotype in a plaque inhibition assay using monolayers of M-HeLa cells
Format: functional, organism-based

Compound | IC50 [µM]
CN(C)c1nc(C(F)(F)F)nc2c1ncn2Cc1ccc(Cl)c(Cl)c1 | 4.8

System: Human rhinovirus sp.
Assay: Antiviral activity against rhinoviral-19 serotype in a plaque inhibition assay using monolayers of M-HeLa cells
Format: functional, organism-based

Compound | IC50 [µM]
CN(C)c1nc(C(F)(F)F)nc2c1ncn2Cc1ccc(Cl)c(Cl)c1 | 5.4

System: Human rhinovirus sp.
Assay: Percent inhibitory activity at 8 uM against rhinoviral 3 serotype in a plaque inhibition assay using monolayers of M-HeLa cells
Format: functional

Compound | Inhibition [%]
CN(C)c1nc(C(F)(F)F)nc2c1ncn2Cc1ccc(Cl)c(Cl)c1 | 40

System: Human rhinovirus sp.
Assay: Antiviral activity against rhinoviral-1A serotype in a plaque inhibition assay using monolayers of M-HeLa cells
Format: functional, organism-based

Compound | IC50 [µM]
CN(C)c1nc(C(F)(F)F)nc2c1ncn2Cc1ccc(Cl)c(N)c1 | 2.4
CN(C)c1nc(C(F)(F)F)nc2c1ncn2Cc1ccc(Cl)c(Cl)c1 | 0.73

System: Human rhinovirus sp.
Assay: Percent inhibitory activity at 8 uM against rhinoviral 31 serotype in a plaque inhibition assay using monolayers of M-HeLa cells
Format: functional

Compound | Inhibition [%]
CN(C)c1nc(C(F)(F)F)nc2c1ncn2Cc1ccc(Cl)c(N)c1 | 29

System: Human rhinovirus sp.
Assay: Antiviral activity against rhinoviral 4 serotype in a plaque inhibition assay using monolayers of M-HeLa cells
Format: functional, organism-based

Compound | IC50 [µM]
CN(C)c1nc(C(F)(F)F)nc2c1ncn2Cc1ccc(Cl)c(N)c1 | 7.2
CN(C)c1nc(C(F)(F)F)nc2c1ncn2Cc1ccc(Cl)c(Cl)c1 | 8.4

System: Human rhinovirus sp.
Assay: Antiviral activity against rhinoviral 5 serotype in a plaque inhibition assay using monolayers of M-HeLa cells
Format: functional, organism-based

Compound | IC50 [µM]
CN(C)c1nc(C(F)(F)F)nc2c1ncn2Cc1ccc(Cl)c(N)c1 | > 8
CN(C)c1nc(C(F)(F)F)nc2c1ncn2Cc1ccc(Cl)c(Cl)c1 | > 8
